According to US20170058314A1, “NOVEL METHODOLOGY FOR IDENTIFYING ANTI-PERSISTER ACTIVITY AND ANTIMICROBIAL SUSCEPTIBILITY FOR BORRELIA BURGDORFERI AND OTHER BACTERIA” (priority 2014, published 2017):

What was measured:
[1] = system: round body form of B. burgdorferi; test: SYBR Green I/PI assay on amoxicillin-induced round body form; details: for viability at 50 µM: Borreliella burgdorferi, 168 h, read-out: Residual viable cells (SYBR Green I/PI assay)
[2] = system: stationary phase B. burgdorferi persisters (strain B31); test: SYBR Green I/PI viability assay (plate reader), FDA-approved drug library screen; details: for Ratio of Green/Red fluorescence, Primary screening / Ratio of Green/Red fluorescence, Rescreening (first column) / Ratio of Green/Red fluorescence, Rescreening (second column): 7 days, stationary phase; for viability at 50 µM: Borreliella burgdorferi, 168 h, read-out: Residual viable cells (regression equation, SYBR Green I/PI assay)

| SMILES | viability at 50 µM [1] | Ratios of green/red fluorescence, Primary screening ([1]; round body form, 50 μM, 7 days) | Ratios of green/red fluorescence, Rescreening (first column) ([1]; round body form, 50 μM, 7 days) | Ratios of green/red fluorescence, Rescreening (second column) ([1]; round body form, 50 μM, 7 days) | Ratio of Green/Red fluorescence, Primary screening ([2]; 50 μM) | Ratio of Green/Red fluorescence, Rescreening (first column) ([2]; 50 μM) | Ratio of Green/Red fluorescence, Rescreening (second column) ([2]; 50 μM) | viability at 50 µM [2] | activity against stationary phase B. burgdorferi (words; SYBR Green I/PI assay) ([2]; FDA drug screen) | Residual viable cells (regression equation, SYBR Green I/PI assay) ([2]; 50 μM, 7-day old stationary phase cells treated for 7 days) | Residual viable cells (SYBR Green I/PI assay) ([1]; round body form, 50 μM, 7 days) |
| --- | --- | --- | --- | --- | --- | --- | --- | --- | --- | --- | --- |
| CCS(=O)(=O)CCn1c([N+](=O)[O-])cnc1C [Tinidazole] | 33% | 6.24 | 6.21 | 6.36 |  |  |  |  |  |  |  |
| CN(C)[C@@H]1C(O)=C(C(=O)NCN2CCCC2)C(=O)[C@@]2(O)C(O)=C3C(=O)c4c(O)cccc4[C@@](C)(O)[C@H]3C[C@@H]12 [Rolitetracycline] | 35% | 6.23 | 6.35 | 6.37 |  |  |  |  |  |  |  |
| CCn1cc(C(=O)O)c(=O)c2cc(F)c(N3CCNCC3)cc21 [norfloxacin] | 41% |  |  |  |  |  |  |  |  |  |  |
| CC(C)(O/N=C(\C(=O)N[C@@H]1C(=O)N2C(C(=O)[O-])=C(C[n+]3ccccc3)CS[C@H]12)c1csc(N)n1)C(=O)O [Ceftazidime] | 34% | 6.20 | 6.34 | 6.37 |  |  |  |  |  |  |  |
| COc1cnc(NS(=O)(=O)c2ccc(N)cc2)nc1 [Sulfameter] |  |  |  |  | 7.13 | 7.46 | 6.98 | 54% | effective |  |  |
| O=C(O)C1=C(CSc2nnnn2CS(=O)(=O)O)CS[C@@H]2[C@H](NC(=O)[C@H](O)c3ccccc3)C(=O)N12 [Cefonicid] |  |  |  |  | 6.86 | 7.54 | 6.07 | 46% |  |  |  |
| Cc1nnc(SCC2=C(C(=O)O)N3C(=O)[C@@H](NC(=O)Cn4cnnn4)[C@H]3SC2)s1 [Cefazolin] | 34% | 6.23 | 6.34 | 6.29 |  |  |  |  |  |  |  |
| [Bi] [Bismuth] |  |  |  |  | 6.94 | 6.82 | 6.92 |  |  | 48% |  |
| Nc1ccc(S(=O)(=O)Nc2nccs2)cc1 [Sulfathiazole] | 31% | 6.38 | 6.18 | 6.17 |  |  |  |  |  |  |  |
| C[C@H]1COc2c(N3CCN(C)CC3)c(F)cc3c(=O)c(C(=O)O)cn1c23 [levofloxacin] | 41% |  |  |  |  |  |  |  |  |  |  |
| Nc1ccc(S(=O)(=O)O)cc1 [Sulfanilate] |  | 6.49 | 6.03 | 6.40 |  |  |  |  |  |  | 34% |
| C[C@H]1[C@H](NC(=O)/C(=N\OC(C)(C)C(=O)O)c2csc(N)n2)C(=O)N1S(=O)(=O)O [Aztreonam] | 34% | 6.16 | 6.38 | 6.33 |  |  |  |  |  |  |  |
| CO/N=C(\C(=O)N[C@@H]1C(=O)N2C(C(=O)O)=C(CSc3nnnn3C)CS[C@H]12)c1csc(N)n1 [Cefmenoxime] | 32% | 6.18 | 6.33 | 6.28 | 6.82 | 7.59 | 6.32 | 48% |  |  |  |
| COc1ccc(NS(=O)(=O)c2ccc(N)cc2)nn1 [Sulfamethoxypyridazine] | 30% | 6.20 | 6.07 | 6.34 |  |  |  |  |  |  |  |
| CO/N=C(\C(=O)N[C@@H]1C(=O)N2C(C(=O)O)=CCS[C@H]12)c1csc(N)n1 [Ceftizoxime] |  |  |  |  | 6.94 | 6.83 | 7.03 | 49% |  |  |  |
| CN(C)[C@@H]1C(O)=C(C(N)=O)C(=O)[C@@]2(O)C(O)=C3C(=O)c4c(O)ccc(Cl)c4[C@@](C)(O)[C@H]3C[C@@H]12 [Chlortetracycline] | 31% | 6.20 | 6.36 | 6.18 |  |  |  |  |  |  |  |
| C=C1c2c(Cl)ccc(O)c2C(=O)C2=C(O)[C@]3(O)C(=O)C(C(N)=O)=C(O)[C@@H](N(C)C)[C@@H]3[C@@H](O)[C@H]12 [Meclocycline] | 33% | 6.52 | 6.23 | 6.09 |  |  |  |  |  |  |  |
